Activity calls are given as the source filed them. The calls are words filed in the database; no cut-off is given here.
Assays:
MDA-MB-231 [1] = assay: Upregulation of Bax expression in human MDA-MB-231 cells at 0.25 to 1 uM by Western blot analysis; type: functional, cell-based; details: dose 0.25-1 µM
4T1 [2] = assay: Antiinvasive activity against mouse 4T1 cells assessed as reduction in cell invasion measured after 24 hrs by crystal violet staining based transwell invasion assay; type: functional; details: dose 0.02-0.5 µM
4T1 [3] = assay: Downregulation of phosphorylated mTOR protein level at Ser2448 residue in mouse 4T1 cells at 0.02 to 2.5 uM incubated for 24 hrs by Western blot analysis; type: functional, cell-based; details: dose 0.02-2.5 µM
MDA-MB-231 [4] = assay: Induction of apoptosis in human MDA-MB-231 cells assessed as viable cells at 0.25 uM by Annexin V-FITC staining based flow cytometric analysis (reference value: 91.03%); type: functional; details: read-out: Activity
[5] = Toxicity in nude mouse xenografted with human MDA-MB-231 cells assessed as effect on body weight at 10 to 20 mg/kg, ip administered for 30 days; type: organism-based; details: in vivo, 720 h, dose 10-20 mg/kg, time 30 day
MDA-MB-231 [6] = assay: Induction of apoptosis in human MDA-MB-231 cells assessed as early apoptotic cells at 1 uM by Annexin V-FITC staining based flow cytometric analysis (reference value: 0.17 %); type: functional
MDA-MB-231 [7] = assay: Antitumor activity against human MDA-MB-231 cells xenografted in nude mouse assessed as reduction in tumor volume at 10 to 20 mg/kg, ip administered for 30 days; type: functional, organism-based; details: dose 10-20 mg/kg, time 30.0 day
MDA-MB-231 [8] = assay: Induction of apoptosis in human MDA-MB-231 cells assessed as late apoptotic cells at 0.5 uM by Annexin V-FITC staining based flow cytometric analysis (reference value: 0.02 %); type: functional
Cell membrane = assay: Induction of mitochondrial membrane loss in human MDA-MB-231 cells assessed as increase in ratio of green fluorescence at 0.25 to 1 uM incubated for 24 hrs by JC-1 staining based; type: cell membranes; details: dose 0.25-1 µM
4T1 [9] = assay: Antimigratory activity in mouse 4T1 cells assessed as inhibition of cell migration at 0.02 to 0.5 uM incubated for 24 hrs by scratch assay; type: functional, cell-based; details: dose 0.02-0.5 µM
MDA-MB-231 [10] = assay: Induction of apoptosis in human MDA-MB-231 cells assessed as upregulation of caspase-9 expression at 0.25 to 1 uM by Western blot analysis; type: functional, cell-based; details: dose 0.25-1 µM
MDA-MB-231 [11] = assay: Induction of apoptosis in human MDA-MB-231 cells assessed as viable cells at 0.5 uM by Annexin V-FITC staining based flow cytometric analysis (reference value: 91.03%); type: functional; details: read-out: Activity
4T1 [12] = assay: Downregulation of phosphorylated AKT protein level at Thr308 residue in mouse 4T1 cells at 0.02 to 2.5 uM incubated for 24 hrs by Western blot analysis; type: functional, cell-based; details: dose 0.02-2.5 µM
MDA-MB-231 [13] = assay: Antiproliferative activity against human MDA-MB-231 cells assessed as inhibition of cell growth at 0.01 to 100 uM incubated for 72 hrs in presence of Fer-1 by MTT assay; type: functional, cell-based; details: dose 0.01-100 µM
MDA-MB-231 [14] = assay: Induction of apoptosis in human MDA-MB-231 cells assessed as upregulation of cleaved caspase-3 expression at 0.25 to 1 uM by Western blot analysis; type: functional, cell-based; details: dose 0.25-1 µM
MDA-MB-231 [15] = assay: Induction of apoptosis in human MDA-MB-231 cells assessed as late apoptotic cells at 1 uM by Annexin V-FITC staining based flow cytometric analysis (reference value: 0.02 %); type: functional
4T1 [16] = assay: Upregulation of DUSP1 protein expression in mouse 4T1 cells incubated for 24 hrs by Western blot analysis; type: functional, cell-based; details: dose 0.02-2.5 µM
MDA-MB-231 [17] = assay: Induction of lipid ROS accumulation in human MDA-MB-231 cells incubated for 24 hrs in presence of Fer-1 by BODIPY-C11 probe based flow cytometric analysis; type: functional, cell-based
T47D = assay: Antiproliferative activity against human T47D cells assessed as reduction in cell viability incubated for 72 hrs by MTT assay; type: functional, cell-based
[18] = Acute toxicity in ip female ICR mouse assessed as lethal dose measured after 2 days; type: organism-based; details: in vivo, time 2 day
MDA-MB-231 [19] = assay: Antitumor activity against human MDA-MB-231 cells xenografted in nude mouse assessed as reduction in tumor size at 10 to 20 mg/kg, ip administered for 30 days; type: functional, organism-based; details: dose 10-20 mg/kg, time 30.0 day
MDA-MB-231 [20] = assay: Upregulation of Bid expression in human MDA-MB-231 cells at 0.25 to 1 uM by Western blot analysis; type: functional, cell-based; details: dose 0.25-1 µM
MDA-MB-231 [21] = assay: Induction of apoptosis in human MDA-MB-231 cells assessed as late apoptotic cells at 0.25 uM by Annexin V-FITC staining based flow cytometric analysis (reference value: 0.02 %); type: functional
4T1 [22] = assay: Inhibition of cell adhesion in mouse 4T1 cells assessed as rounded form appearance of cells at 0.02 to 0.5 uM incubated for 24 hrs by microscopic analysis; type: functional, cell-based; details: dose 0.02-0.5 µM
MDA-MB-231 [23] = assay: Induction of lipid ROS accumulation in human MDA-MB-231 cells incubated for 24 hrs by BODIPY-C11 probe based flow cytometric analysis; type: functional, cell-based; details: dose 0.25-1 µM
MDA-MB-231 [24] = assay: Antitumor activity against human MDA-MB-231 cells xenografted in nude mouse assessed as reduction in tumor weight at 20 mg/kg, ip administered for 30 days relative to control; type: functional; set-up: scale not given: the % may be the effect or the level left; details: time 30 day
MDA-MB-231 [25] = assay: Induction of ferroptosis in human MDA-MB-231 cells assessed as decrease in FTH1 expression by Western blot analysis; type: functional, cell-based; details: dose 0.25-1 µM
MDA-MB-231 [26] = assay: Downregulation of caspase-8 expression in human MDA-MB-231 cells at 0.25 to 1 uM by Western blot analysis; type: functional, cell-based; details: dose 0.25-1 µM
4T1 [27] = assay: Antiproliferative activity against mouse 4T1 cells assessed as reduction in cell viability incubated for 72 hrs by MTT assay; type: functional, cell-based; details: 4T1, 72 h
[28] = Acute toxicity in female ICR mouse assessed as liver pathological abnormalities at 50 mg/kg, ip measured after 2 days; type: organism-based; details: in vivo, 48 h, time 2 day
MDA-MB-231 [29] = assay: Inhibition of Bcl2 expression in human MDA-MB-231 cells at 0.25 to 1 uM by Western blot analysis; type: functional, cell-based; details: dose 0.25-1 µM

Which results are given for CC[C@H]1O[C@@]2(C)[C@H](OC(C)=O)[C@@]1(C)O[C@@H](/C=C/C=C/C=C/c1oc(=O)cc(OC)c1C)[C@@H]2OC(=O)CCC(=O)OC/C=C/COc1no[n+]([O-])c1S(=O)(=O)c1ccccc1?
Activity (MDA-MB-231 [1]): Active; Activity (4T1 [2]): Dose-Dependent Effect; Activity (4T1 [3]): Active; viability at 0.25 µM (MDA-MB-231 [4]): 80.8%; Activity [5]: Non-Toxic; Activity (MDA-MB-231 [6]): 42.67%; Activity (MDA-MB-231 [7]): Active; Activity (MDA-MB-231 [8]): 8.01%; Activity (Cell membrane): Active; Activity (4T1 [9]): Active; Activity (MDA-MB-231 [10]): Active; viability at 0.5 µM (MDA-MB-231 [11]): 75.3%; Activity (4T1 [12]): Active; Activity (MDA-MB-231 [13]): inactive; Activity (MDA-MB-231 [14]): Active; Activity (MDA-MB-231 [15]): 8.89%; Activity (4T1 [16]): Dose-Dependent Effect; Activity (MDA-MB-231 [17]): inactive; IC50 (T47D): > 50000 nM; LD50 at 48 h [18]: 103 mg/kg; Activity (MDA-MB-231 [19]): Active; Activity (MDA-MB-231 [20]): Active; Activity (MDA-MB-231 [21]): 5.82%; inhibition (4T1 [22]): Active; Activity (MDA-MB-231 [23]): Dose-Dependent Effect; Activity (MDA-MB-231 [24]): 91%; Activity (MDA-MB-231 [25]): Dose-Dependent Effect; Activity (MDA-MB-231 [26]): Active; IC50 (4T1 [27]): 870 nM; Activity [28]: Non-Toxic; inhibition (MDA-MB-231 [29]): Active

Reference: ChEMBL document CHEMBL5523764, “Discovery of NO Donor-Aurovertin Hybrids as Dual Ferroptosis and Apoptosis Inducers for Treating Triple Negative Breast Cancer” (J Med Chem, 2024)
